The results in this text go back to ChEMBL document CHEMBL4145564, “NAD(P)H:Quinone Oxidoreductase 1 (NQO1) as a Therapeutic and Diagnostic Target in Cancer” (J Med Chem, 2018).

The target of data set [1] is T1, NAD(P)H dehydrogenase [quinone] 1 (Homo sapiens, UniProt P15559). As to the kind of experiment: Inhibition of recombinant human NQO1 in presence of NADPH measured at 2 sec intervals for 5 mins.
The subject of another data set is Homo sapiens. Briefly: Toxicity in iv dosed human assessed as maximum tolerated dose administered as infusion. The format is organism-based. The following applies: in vivo.
Data set [2] can be described thus: Half life in athymic nude mouse blood. It counts as ADME, organism-based.
Data set [3] concerns the target T1, NAD(P)H dehydrogenase [quinone] 1. Briefly: Inactivation of recombinant human NQO1 expressed in Escherichia coli using DCPIP as substrate assessed as rate of reduction of DCPIP by spectrophotometric analysis.
The target is the same in data set [4]. As to the kind of experiment: Inhibition of recombinant human NQO1 expressed in Escherichia coli using DCPIP as substrate assessed as rate of reduction of DCPIP in presence of NADH after 5 mins by spectrophotometric analysis.
Data set [5] has the same target. Briefly: Inactivation of recombinant human NQO1 expressed in Escherichia coli using DCPIP as substrate assessed as partition ratio up to 200 nM by spectrophotometric analysis.
Data set [6] concerns the target T2, NAD(P)H dehydrogenase [quinone] 1 (Rattus norvegicus, UniProt P05982).
T2 sequence (P05982 whole entry): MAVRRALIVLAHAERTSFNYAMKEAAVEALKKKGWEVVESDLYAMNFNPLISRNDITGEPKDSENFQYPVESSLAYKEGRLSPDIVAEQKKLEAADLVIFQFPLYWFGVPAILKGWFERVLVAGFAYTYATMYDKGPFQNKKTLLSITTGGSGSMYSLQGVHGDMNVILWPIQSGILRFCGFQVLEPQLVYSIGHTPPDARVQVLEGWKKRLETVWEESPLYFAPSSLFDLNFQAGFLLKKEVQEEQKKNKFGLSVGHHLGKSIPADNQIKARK
As to the kind of experiment: Competitive binding affinity to rat liver NQO1 in presence of NADPH.

In the case of `S=C(Cc1ccc2c3c([nH]c2c1)CCCC3)N1CCOCC1`, the half-maximal inhibitory concentration (IC50) (as a rule, the concentration that gives 50% inhibition) in data set [1] was 1470 nM.

Regarding `CC1=C(N2CC2)C(=O)C(CO)=C(N2CC2)C1=O`, the MTD in the data set on Homo sapiens worked out at 1430 ug/m2/day. In the case of `CC1(C)CCC2=C(O1)c1ccccc1C(=O)C2=O` [LAPACHONE], in data set [2], the half-life (as a rule, the time needed for the level to fall by half in the phase considered) came to 24 min. Turning to `COC1=CC(=O)c2c(c(COc3ccc([N+](=O)[O-])cc3)c(C)n2C)C1=O`, the Kinact in data set [3] worked out at 0.78 min⁻¹. Moreover, in data set [4], the inhibitory constant (Ki) (in general, the equilibrium dissociation constant of an inhibitor or competing ligand from its target) is 450 nM. For the same molecule, the Ratio in data set [5] worked out at 1.4. For the molecule `CN1C(=O)C(O)(CC(=O)c2cc3c4c(cccc4c2)CC3)c2ccccc21` (stereo not drawn), the IC50 in data set [1] was 2040 nM. In the case of `O=c1oc2ccccc2c(O)c1Cc1c(O)c2ccccc2oc1=O` [DICUMAROL], in data set [6], the Ki was in the range of 1 to 10 nM.
